As a reminder, the IC50 is the point on the concentration scale where inhibition reaches its midpoint. Read a high IC50 as weaker potency in that assay.

Three compounds from patent US11384048B2, “Aromatic vinyl or aromatic ethyl derivative, preparation method therefor, intermediate, pharmaceutical composition, and application” (GUANGZHOU MAXINOVEL PHARMACEUTICALS CO., LTD., priority 2017, dated 2022) can be followed below.

Bounds are passed on as bounds.

Chain of PD-1/PD-L1 (Q9NZQ7 19-238): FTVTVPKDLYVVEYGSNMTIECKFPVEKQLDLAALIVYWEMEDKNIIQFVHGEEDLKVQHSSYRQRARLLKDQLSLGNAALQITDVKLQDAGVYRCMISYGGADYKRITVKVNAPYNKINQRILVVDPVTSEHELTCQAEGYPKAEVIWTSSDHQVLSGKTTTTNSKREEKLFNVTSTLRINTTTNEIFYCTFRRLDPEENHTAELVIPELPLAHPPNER

The assay has as its target PD-1/PD-L1 (Homo sapiens (Human), UniProt Q9NZQ7). Kind of assay: Homogenouse Time-Resolved Fluorescence (HTRF) binding assay PD-1/PD-L1. Conditions: CisBio kit #64CUS000C-1. The method, then:
Homogenouse Time-Resolved Fluorescence (HTRF) binding assay was used to determine the binding activity of the compound of the present disclosure to PD-1/PD-L1.
The purchased kit (CisBio, #64CUS000C-1) contained the reagents required for experiments such as PD-1, PD-L1, anti-tag1-Eu, Anti-tag2-XL665, Dilute Buffer and Detection Buffer.
1. The compound was formulated to 10 concentrations with a three-fold concentration gradient with 100% DMSO.
2. The solution of the compound in DMSO was added to Dilute Buffer, and mixed evenly and then transferred to a 96-well plate.
3. PD-L1 was diluted with Dilute Buffer and added to the 96-well plate above.
4. PD-1 was diluted with Dilute Buffer, then added to the 96-well plate above and incubated at room temperature for 30 minutes.
5. One portion of anti-tag1-Eu and one portion of anti-tag2-XL665 were added to Detection Buffer, mixed evenly and transferred to the 96-well plate above.
6. The mixed solution in the 96-well plate were incubated at room temperature for 1 to 24 hours.
7. HTRF values were read by Envision.
(Time-resolved FRET reads energy transfer from a long-lived donor to a nearby acceptor.)
`Cc1c(/C=C/c2cc(CN[C@@](C)(CO)C(=O)O)ccc2C(F)(F)F)cccc1-c1ccc2nccn2c1` [Compound 36] registered a half-maximal inhibitory concentration (IC50) greater than 10000 nM. The compound `Cc1c(/C=C/c2cc(CN[C@@](C)(CO)C(=O)O)ccc2C(F)(F)F)cccc1-c1cn2ccnc2cn1` [Compound 37] had a 50% inhibitory concentration (IC50) of 1300 nM.

In turn, `Cc1nc2ccc(-c3cccc(/C=C/c4cc(CN[C@@](C)(CO)C(=O)O)ccc4C(F)(F)F)c3C)cc2o1` [Compound 43, (S,E)-3-hydroxy-2-methyl-2-(3-(2-methyl-3-(2-methylbenzo[d]oxazol-6-yl)-styryl)-4-(trifluoromethyl)benzylamino)-3-hydroxy-2-methylpropanoic acid] had an IC50 of 540 nM.
